In brackets after ≈: the same amount, converted by molar mass. Where two headings read alike, the source gives them in different places.
Experiments:
Experiment in all cases: antibacterial activity (MIC), standard in vitro dilution test
[1] = test system: MRSA 31 high-resist. (IPM resist.); assay type: cell-based, Staphylococcus aureus; settings: for MIC: Staphylococcus aureus, MRSA, read-out: MIC, MRSA 31 high-resist. (IPM resist.)
Excerpt: (§1) With respect to certain compounds (I) of the present invention, their general antibacterial activities and their antibacterial activities (MIC) against various methicillin-resistant strains of Staphylococcus aureus (methicillin-resistant Staphylococcus aureus: MRSA) were investigated. The results will be shown next.
(§2) Of the investigations, the general antibacterial activities were investigated by a standard in vitro dilution test.
(§3) As test bacteria, Staphylococcus aureus 209P JC-1, Escherichia coli NIHJ JC-2 and MRSAs were used.

[2] = test system: MRSA 33 high-resist. (IPM resist.); assay type: cell-based, Staphylococcus aureus; settings: for MIC: Staphylococcus aureus, MRSA, read-out: MIC, MRSA 33 high-resist. (IPM resist.)
Excerpt: as §1, §2, §3

[3] = test system: Escherichia coli NIHJ JC-2 strain; assay type: cell-based; settings: for MIC: Escherichia coli
Excerpt: as §1, §2, §3

[4] = test system: Staphylococcus aureus 209P JC-1 strain; assay type: cell-based; settings: for MIC: Staphylococcus aureus, 209P, read-out: MIC, Staphylococcus aureus 209P JC-1 strain
Excerpt: as §1, §2, §3

[5] = test bacterium strain 10^5 cfu/ml
[6] = NIHJJC2, test bacterium strain 10^5 cfu/ml, read-out: MIC, Escherichia coli NIHJ JC-2 strain

Structure (SMILES)	MIC [1, 5] [µg/mL]	MIC [2, 5] [µg/mL]	MIC [3, 6] [µg/mL]	MIC [4, 5] [µg/mL]	also measured
CC[C@H](O)[C@@H]1C(=O)N2C(C(=O)O)=C(S[C@H]3CCN(C4Cc5ccccc5C4)C3)S[C@H]12 [Ex. 214]	6.25 (≈ 14 µM)	3.13 (≈ 7.01 µM)	6.25 (≈ 14 µM)	0.1 (≈ 0.224 µM)	
CC[C@H](O)[C@@H]1C(=O)N2C(C(=O)O)=C(S[C@H]3CCN(C(=N)CF)C3)S[C@H]12 [Ex. 253]	6.25 (≈ 16 µM)	6.25 (≈ 16 µM)	0.78 (≈ 2 µM)	0.1 (≈ 0.257 µM)	
CC[C@H](O)[C@@H]1C(=O)N2C(C(=O)O)=C(SC3CCN(C4CC4)C3)S[C@H]12 (stereo partly drawn) [Ex. 235]	6.25 (≈ 16.9 µM)	6.25 (≈ 16.9 µM)	0.78 (≈ 2.11 µM)	0.1 (≈ 0.27 µM)	
CC[C@H](O)[C@@H]1C(=O)N2C(C(=O)O)=C(S[C@H]3CCN(C(C)C(=O)c4ccccc4)C3)S[C@H]12 (stereo partly drawn) [Ex. 117]					MIC [1]: 6.25 µg/mL (≈ 13.5 µM); MIC [2]: 6.25 µg/mL (≈ 13.5 µM); MIC ([3]; NIHJJC2, read-out: MIC, Escherichia coli NIHJ JC-2 strain): 1.56 µg/mL (≈ 3.37 µM); MIC [4]: 0.1 µg/mL (≈ 0.216 µM)
CC[C@H](O)[C@@H]1C(=O)N2C(C(=O)O)=C(SC3CCN(C/C=C/c4ccccc4)C3)S[C@H]12 (stereo partly drawn) [Ex. 228]	3.13 (≈ 7.01 µM)	3.13 (≈ 7.01 µM)	12.5 (≈ 28 µM)	0.05 (≈ 0.112 µM)	
CC[C@H](O)[C@@H]1C(=O)N2C(C(=O)O)=C(S[C@H]3CCN(C(=N)Nc4ccccc4)C3)S[C@H]12 [Ex. 243]	6.25 (≈ 13.9 µM)	6.25 (≈ 13.9 µM)	1.56 (≈ 3.48 µM)	0.2 (≈ 0.446 µM)	
CC[C@H](O)[C@@H]1C(=O)N2C(C(=O)O)=C(S[C@H]3CCN(CCOc4ccccc4)C3)S[C@H]12 [Ex. 210]	6.25 (≈ 13.9 µM)	6.25 (≈ 13.9 µM)	12.5 (≈ 27.7 µM)	0.1 (≈ 0.222 µM)	
CC[C@H](O)[C@@H]1C(=O)N2C(C(=O)O)=C(S[C@H]3CCN(c4ccncc4)C3)S[C@H]12 [Ex. 203]	3.13 (≈ 7.68 µM)	3.13 (≈ 7.68 µM)	0.78 (≈ 1.91 µM)	0.05 (≈ 0.123 µM)	
CC[C@H](O)[C@@H]1C(=O)N2C(C(=O)O)=C(S[C@H]3CCN(c4ccc(NC(C)=N)cc4)C3)S[C@H]12 [Ex. 257]	3.13 (≈ 6.77 µM)	1.56 (≈ 3.37 µM)	12.5 (≈ 27 µM)	0.05 (≈ 0.108 µM)	
CC[C@H](O)[C@@H]1C(=O)N2C(C(=O)O)=C(SCCN)S[C@H]12 [Ex. 140, (5R,6R)-2-(2-aminoethyl)thio-6-((S)-1-hydroxypropyl)penem-3-carboxylic acid]	6.25 (≈ 20.5 µM)	6.25 (≈ 20.5 µM)	0.73 (≈ 2.4 µM)	0.1 (≈ 0.329 µM)	
CC[C@H](O)[C@@H]1C(=O)N2C(C(=O)O)=C(SCCNC(=N)c3ccccc3)S[C@H]12 [Ex. 132, (5R,6R)-2-(2-(α-iminobenzyl)-aminoethyl)thio-6-((S)-1-hydroxypropyl)penem-3-carboxylic acid]	6.25 (≈ 15.3 µM)	6.25 (≈ 15.3 µM)	1.56 (≈ 3.83 µM)	0.1 (≈ 0.245 µM)	
CC[C@H](O)[C@@H]1C(=O)N2C(C(=O)O)=C(S[C@H]3CCN(CC(=O)c4ccc(F)cc4)C3)S[C@H]12 [Ex. 112, (5R,6R)-2-((S)-1-(2-p-fluorophenyl-2-oxoethyl)pyrrolidin-3-yl)thio-6-((S)-1-hydroxypropyl)penem-3-carboxylic acid]	6.25 (≈ 13.4 µM)	6.25 (≈ 13.4 µM)	0.78 (≈ 1.67 µM)	0.1 (≈ 0.214 µM)	
CC[C@H](O)[C@@H]1C(=O)N2C(C(=O)O)=C(S[C@H]3CCN(Cc4ccccn4)C3)S[C@H]12 [Ex. 123, (5R,6R)-6-((S)-1-hydroxypropyl)-2-((S)-1-(2-pyridylmethyl)pyrrolidin-3-yl)thiopenem-3-carboxylic acid]	6.25 (≈ 14.8 µM)	6.25 (≈ 14.8 µM)	3.13 (≈ 7.43 µM)	0.2 (≈ 0.474 µM)	
CC[C@H](O)[C@@H]1C(=O)N2C(C(=O)O)=C(S[C@H]3CCN(c4ncccn4)C3)S[C@H]12 [Ex. 209]	6.25 (≈ 15.3 µM)	6.25 (≈ 15.3 µM)	25 (≈ 61.2 µM)	0.39 (≈ 0.955 µM)	
CC[C@H](O)[C@@H]1C(=O)N2C(C(=O)O)=C(S[C@H]3CCN(CCC(=O)c4ccccc4)C3)S[C@H]12 [Ex. 116, (5R,6R)-2-((S)-1-(2-benzoylethyl)-pyrrolidin-3-yl)thio-6-((S).-1-hydroxypropyl)-penem-3-carboxylic acid]	3.13 (≈ 6.77 µM)	3.13 (≈ 6.77 µM)	0.2 (≈ 0.432 µM)	0.05 (≈ 0.108 µM)	
CCC(=N)N1CC[C@H](SC2=C(C(=O)O)N3C(=O)[C@@H]([C@@H](O)CC)[C@H]3S2)C1 [Ex. 250]	6.25 (≈ 16.2 µM)	6.25 (≈ 16.2 µM)	1.56 (≈ 4.05 µM)	0.2 (≈ 0.519 µM)	
CC[C@H](O)[C@@H]1C(=O)N2C(C(=O)O)=C(S[C@H]3CCN(CC(=O)c4ccc(C)cc4)C3)S[C@H]12 [Ex. 113, (5R,6R)-6-((S)-1-hydroxypropyl)-2-((S)-1-(2-oxo-2-p-tolylethyl)pyrrolidin-3-yl)-thiopenem-3-carboxylic acid]	6.25 (≈ 13.5 µM)	6.25 (≈ 13.5 µM)	0.39 (≈ 0.843 µM)	0.1 (≈ 0.216 µM)	
CC[C@H](O)[C@@H]1C(=O)N2C(C(=O)O)=C(S[C@H]3CCN(CC(=O)c4ccc5c(c4)OCO5)C3)S[C@H]12 [Ex. 207]	6.25 (≈ 12.7 µM)	6.25 (≈ 12.7 µM)	0.39 (≈ 0.792 µM)	0.1 (≈ 0.203 µM)	
CC[C@H](O)[C@@H]1C(=O)N2C(C(=O)O)=C(SCCN3CCCC3)S[C@H]12 [Ex. 143, (5R,6R)-6-((S)-1-hydroxypropyl)-2-(2-(pyrrolidin-1-yl)ethyl)thiopenem-3-carboxylic acid]	6.25 (≈ 17.4 µM)	6.25 (≈ 17.4 µM)	3.13 (≈ 8.73 µM)	0.39 (≈ 1.09 µM)	
CC[C@H](O)[C@@H]1C(=O)N2C(C(=O)O)=C(S[C@H]3CCN(C[C@@H](O)c4ccccc4)C3)S[C@H]12 [Ex. 107, (5R,6R)-6-((S)-1-hydroxypropyl)-2-(1-((S)-2-hydroxy-2-phenylethyl)pyrrolidin-3-yl)thiopenem-3-carboxylic acid]	6.25 (≈ 13.9 µM)	6.25 (≈ 13.9 µM)	1.56 (≈ 3.46 µM)	0.1 (≈ 0.222 µM)	
CC[C@H](O)[C@@H]1C(=O)N2C(C(=O)O)=C(SCc3ccncc3)S[C@H]12 [Ex. 224]	3.13 (≈ 8.88 µM)	3.13 (≈ 8.88 µM)	3.13 (≈ 8.88 µM)	0.2 (≈ 0.567 µM)	
CC[C@H](O)[C@@H]1C(=O)N2C(C(=O)O)=C(SC3CCN(c4ccccc4)C3)S[C@H]12 (stereo partly drawn) [Ex. 105, (5R,6R)-6-((S)-1-hydroxypropyl)-2-(1-phenylpyrrolidin-3-yl)thiopenem-3-carboxylic acid]	1.56 (≈ 3.84 µM)	1.56 (≈ 3.84 µM)	> 12.5	0.1 (≈ 0.246 µM)	
C=CCN1CCC(SC2=C(C(=O)O)N3C(=O)[C@@H]([C@@H](O)CC)[C@H]3S2)C1 (stereo partly drawn) [Ex. 17, (5R,6R)-2-(1-allyl-3-pyrrolidine)-thio-6-((S)-1-hydroxypropyl)penem-3-carboxylic acid]					MIC, MRSA 31 high-resist. (IPM resist.) [1, 5]: 3.13 µg/mL (≈ 8.45 µM); MIC, MRSA 33 high-resist. (IPM resist.) [2, 5]: 3.13 µg/mL (≈ 8.45 µM); MIC, Escherichia coli NIHJ JC-2 strain [3, 5]: 0.39 µg/mL (≈ 1.05 µM); MIC, Staphylococcus aureus 209P JC-1 strain [4, 5]: 0.10 µg/mL (≈ 0.27 µM)
CC[C@H](O)[C@@H]1C(=O)N2C(C(=O)O)=C(S[C@H]3CCN(CC(=O)c4ccc(OC)cc4)C3)S[C@H]12 [Ex. 114, (5R,6R)-6-((S)-1-hydroxypropyl)-2-((S)-1-(2-p-methoxyphenyl-2-oxoethyl)pyrrolidin-3-yl)thiopenem-3-carboxylic acid]	6.25 (≈ 13.1 µM)	6.25 (≈ 13.1 µM)	0.2 (≈ 0.418 µM)	0.2 (≈ 0.418 µM)	
